# Test results published in patent US9861625B2, “Methods and compositions for treating cancer through inhibition of PI3K” (Duke University, priority 2014, dated 2018).
# How the values were obtained:
# Assay in all cases: MTT cell viability assay
# Type in all cases: cell-based
# Riva = details: ABC DLBCL, RPMI 10% FBS
# Text: (§1) A total of 60 cell lines representative of different cancer types were obtained from the ATCC and grown and maintained in accordance with the provided guidelines. The cell lines represented the following distinct histologies: mantle cell lymphoma (5 lines: JVM13, Rec1, Mino, JVM2, Jeko); germinal center B-cell derived (“GCB”) DLBCL (19 lines: Farage, BJAB, Ly1, Ly2, Ly7, Ly8, Ly19, HBL2, HT, Karpas422, Pfeiffer, RCK8, RL, Sci-1, Ski, SUDHL4, SUDHL7, Toledo, WSU-NHL); primary mediastinal B-cell lymphoma (“PMBL”) (3 lines: K1106, MEDB1, U2940); Burkitt lymphoma (11 lines: Daudi, CA46, EB1, EB2, EB3, Jijoye, Raji, Ramos, Namwala, BL2, BL41); Hodgkin lymphoma (3 lines: RMPI6666, L1236, L428); activated B-cell derived (“ABC”) DLBCL (6 lines: Ly3, HBL1, TMD8, Ly10, Riva, U2932); multiple myeloma (6 lines: U266, SKMM1, RPMI8226, KMS12, IM9, H929); acute myelogenous leukemia (“AML”) (2 lines: U937, KG1); acute lymphoblastic leukemia (“ALL”) (2 lines: Reh, SR); and T-cell lymphoma (3 lines: Molt4, RPMI8402, Jurkat). The cell lines were tested within six months after resuscitation.
# (§2) The 3-(4,5-dimethylthiazol-2-yl)-2,5-diphenyltetrazolium bromide (MTT) cell viability assay was used to determine cell viability in response to drug treatment. Five replicates per concentration tested were carried out in serial dilutions with a total of ten concentrations with a 50% reduction in drug concentration per dilution for each plate. A total of 15 μl of MTT reagent was added to each drug-treated well and incubated for three hours in 37° C. Detergent was added to each drug-treated well and incubated overnight at room temperature without exposure to light. Absorbance was measured at 570 nm using a plate reader from Tecan Group. The IC50 concentration was determined using the publicly available ED50 plus v1.0 software program.
# LY10 = details: LY10, ABC DLBCL, OCI
# Text: as §1, §2
# BL41 = details: Homo sapiens, BL-41; BL41, Burkitt Lymphoma, RPMI 10% FBS
# Text: as §1, §2
# U2932 = details: Homo sapiens; U2932, ABC DLBCL, RPMI 10% FBS
# Text: as §1, §2
# JVM13 = details: JVM13, MantleCellLymphoma, RPMI 10% FBS
# Text: as §1, §2
# RMPI6666 = details: RMPI6666, Hodgkin Lymphoma, RPMI 10% FBS
# Text: as §1, §2
# SR = details: Homo sapiens, ALL, RPMI 10% FBS
# Text: as §1, §2
# HBL1 = details: HBL1, ABC DLBCL, RPMI 10% FBS
# Text: as §1, §2
# RPMI8226 = details: Homo sapiens, RPMI-8226; RPMI8226, Multiple Myeloma, RPMI 10% FBS
# Text: as §1, §2
# Ramos = details: Homo sapiens, Burkitt Lymphoma, RPMI 10% FBS
# Text: as §1, §2
# JVM2 = details: Homo sapiens, JVM-2; JVM2, MantleCellLymphoma, RPMI 10% FBS
# Text: as §1, §2
# LY8 = details: LY8, GCB DLBCL, OCI
# Text: as §1, §2
# Ski = details: GCB DLBCL, RPMI 10% FBS
# Text: as §1, §2
# U266 = details: Homo sapiens, U-266; U266, Multiple Myeloma, RPMI 15% FBS
# Text: as §1, §2
# U2940 = details: Homo sapiens, U-2940; U2940, PMBL, RPMI 10% FBS
# Text: as §1, §2
# Namwala = details: Burkitt Lymphoma, RPMI 10% FBS
# Text: as §1, §2
# L428 = details: Homo sapiens, L-428; L428, Hodgkin Lymphoma, RPMI 10% FBS
# Text: as §1, §2
# WSUNHL = details: Homo sapiens, WSU-NHL, GCB DLBCL, RPMI 10% FBS
# Text: as §1, §2
# Toledo = details: Homo sapiens, GCB DLBCL, RPMI 10% FBS
# Text: as §1, §2
# HBL2 = details: HBL2, GCB DLBCL, RPMI 10% FBS
# Text: as §1, §2
# KMS12 = details: KMS12, Multiple Myeloma, RPMI 10% FBS
# Text: as §1, §2
# BL2 = details: BL2, Burkitt Lymphoma, RPMI 10% FBS
# Text: as §1, §2
# LY2 = details: LY2, GCB DLBCL, OCI
# Text: as §1, §2
# Jurkat = details: Homo sapiens, T-cell, RPMI 10% FBS
# Text: as §1, §2
smiles,measurement,setting,value
Cn1c(=O)n(-c2ccc(C(C)(C)C#N)cc2)c2c3cc(-c4cnc5ccccc5c4)ccc3ncc21 [BEZ235],IC50,Riva,517 nM
same,IC50,LY10,9390 nM
same,IC50,BL41,11.6 nM
same,IC50,U2932,96.1 nM
same,IC50,JVM13,869 nM
same,IC50,RMPI6666,52 nM
same,IC50,SR,64.2 nM
same,IC50,HBL1,71.7 nM
same,IC50,RPMI8226,56.9 nM
same,IC50,Ramos,51 nM
same,IC50,JVM2,491 nM
same,IC50,LY8,694 nM
same,IC50,Ski,25 nM
same,IC50,U266,167 nM
same,IC50,U2940,35.4 nM
same,IC50,Namwala,32.1 nM
same,IC50,L428,14.6 nM
same,IC50,WSUNHL,16.2 nM
same,IC50,Toledo,20.4 nM
same,IC50,HBL2,1560 nM
same,IC50,KMS12,23.1 nM
same,IC50,BL2,49.9 nM
same,IC50,LY2,29.7 nM
same,IC50,Jurkat,33.2 nM
Nc1cc(C(F)(F)F)c(-c2cc(N3CCOCC3)nc(N3CCOCC3)n2)cn1 [BKM120],IC50,Riva,476 nM
same,IC50,LY10,1520 nM
same,IC50,BL41,5030 nM
same,IC50,U2932,5360 nM
same,IC50,JVM13,933 nM
same,IC50,RMPI6666,3300 nM
same,IC50,SR,807 nM
same,IC50,HBL1,1670 nM
same,IC50,RPMI8226,674 nM
same,IC50,Ramos,1040 nM
same,IC50,JVM2,1390 nM
same,IC50,LY8,1370 nM
same,IC50,Ski,236 nM
same,IC50,U266,5600 nM
same,IC50,U2940,4450 nM
same,IC50,Namwala,714 nM
same,IC50,L428,1870 nM
same,IC50,WSUNHL,1260 nM
same,IC50,Toledo,2010 nM
same,IC50,HBL2,1420 nM
same,IC50,KMS12,954 nM
same,IC50,BL2,722 nM
same,IC50,LY2,2220 nM
same,IC50,Jurkat,1190 nM
